Laboratory results taken from PMC6917776, “Discovery of a chemical probe for PRDM9” (Nature Communications, 2019).
Several values for one entry are separate records, joined by “and”; a condition that tells them apart may be missing. Equal values may be shown once.

System: H3K4me3 at known PRDM9 binding loci and control TSS loci
Test: ChIP-qPCR of H3K4me3 in PRDM9-transfected HEK293T cells
Type: cell-based, human
Conditions: Antibody H3K4me3; for 2^-dCq / dCq (IP-Input) / Cq: Figure 7 Replicate 2; for 2^-dCq (H3K4me3 IP relative to H3 IP): ChIP-qPCR Replicate 1; for Cq: ChIP-qPCR single well; for 2^-dCq (H3K4me3 ChIP relative to H3 ChIP): Replicate 1
Description: ChIP-qPCR assays were then conducted on known PRDM9 binding loci[26]. Ectopic expression of PRDM9^WT increased trimethylation of H3K4 (H3K4me3) at previously described PRDM9-specific intragenic and intergenic regions[26] (Fig. 7; Supplementary Fig. 12). […] The observed increases in H3K4me3 levels at intragenic and intergenic regions are therefore due directly to PRDM9 PR domain-dependent methylation activity, rather than through recruitment of other H3K4 methyltransferases or other indirect mechanisms.
ChIP qPCR analyses of H3K4me3 methylation levels of known PRDM9-bound loci and control loci. […] Concentrations used (µM) are indicated below each plot. (a–d) represent reported loci of PRDM9 methylation; (e, f) are transcriptional start sites (TSSs) which are not known loci of PRDM9 methylation. Data are normalized to total H3 and are presented as the mean ± upper and lower limits from two replicates. Representative plots of two independent experiments are shown in this figure. The coordinates and the genomic features associated with the assayed loci are indicated above each plot. Left Tailed Student's t-tests were performed by comparing DMSO (0 µM) treated cells to compound treated cells that have been transfected with the same plasmids. *p-value < 0.05 and **p-value < 0.01. Note that here we show a representative of two independent experiments (mean ± s.d of technical replicates) for our ChIP-qPCR experiments. Data obtained using this technique are inherently noisy due to stochastic differences in gene activity/histone positioning. Data are thus typically presented as representative rather than averaged. Source data are provided as a Source Data file.
HEK293T cells were transfected with 37.5 μg empty pcDNA3.1(+) vector (Invitrogen), or the same vector expressing either wild-type PRDM9 (PRDM9^WT) or a catalytically dead PRDM9 mutant (PRDM9^Mut) and 75 μL of Lipofectamine 2000 (Invitrogen) in 6 mL of Opti-MEM (GIBCO) for 48 h. […] ChIP assays were then performed as previously described. Briefly, cells were fixed in 1% formaldehyde and the fixation reaction was quenched in a final concentration of 0.1 M glycine. Cell pellets were first lysed in LB1 (50 mM HEPES-KOH pH 7.5, 140 mM NaCl, 1 mM EDTA, 10% Glycerol, 0.5% Igepal, 0.25% TritonX), washed once in LB2 Buffer (10 mM Tris-HCl pH 8, 200 mM NaCl, 1 mM EDTA, 0.5 mM EGTA) and finally sonicated in LB3 buffer (10 mM Tris-HCl pH 8, 100 mM NaCl, 1 mM EDTA, 0.5 mM EGTA, 0.1% Sodium deoxycholate, 0.5% N-laurosylsarcosine) using a bioruptor (Diagenode). Thereafter, 50 μg of chromatin was subjected to ChIP using the following antibodies purchased from Abcam: α-H3K4me3 (1:200, ab8580, lot:GR3207339-1) and α-H3 (1:250, ab1791, lot:GR300978-4). After extensive washing in RIPA wash buffer (50 mM HEPES-KOH pH 7.6, 100 mM LiCl, 1 mM EDTA, 1% Igepal, 0.7% Sodium Deoxycholate), DNA was eluted from beads. The eluted DNA was treated with RNase A and Proteinase K and purified using the QIAGEN PCR purification kit. qPCR was then carried out targeting the indicated loci (Supplementary Table 3). Upper and lower limits were defined by |2^−(dCq±s) − 2^−(∆Cq)|, where s = √((Standard deviation of Input Cq)^2 + (Standard deviation of Target Cq)^2). […]
formation. ChIP qPCR analyses of H3K4me3 methylation levels at known PRDM9-bound and control loci. Cells transfected with empty vector (negative control) or vectors overexpressing either wild-type PRDM9 (PRDM9 WT) or catalytically dead PRDM9 (PRDM9 MUT) were […]
Panels a-d represent reported loci of […]
(1 picture or pasted object on this page, not shown here)
PRDM9 methylation; e-f are TSSs which are not known sites of PRDM9 methylation. Data are normalized to total H3 and are presented as the mean ± upper and lower limits from two […]

[1] = Plasmid PRDM9WT, Drug Conc. 2.5

For COc1cc(OC)cc(-c2noc(N3CCN(C)C4(CCN(c5ccnc(C)c5)CC4)C3)n2)c1 [MRK-740], the “2^-dCq” value [1] was 68.6717, the “dCq (IP-Input)” value [1] was -6.102 and the “2^-dCq” value (Plasmid PRDM9WT, Drug Conc. 5) was 143.684. The “dCq (IP-Input)” value (Plasmid PRDM9WT, Drug Conc. 5) was -7.167, the “2^-dCq” value (Plasmid PRDM9WT, Drug Conc. 10) was 36.5414 and the “dCq (IP-Input)” value (Plasmid PRDM9WT, Drug Conc. 10) was -5.191. The “2^-dCq (H3K4me3 IP relative to H3 IP)” value (Figure 7 E chr12:6643945-6644023 TSS (GAPDH), Plasmid Empty Vector, Drug Conc. 2.5) was 42.6349, the “2^-dCq (H3K4me3 IP relative to H3 IP)” value (Figure 7 E chr12:6643945-6644023 TSS (GAPDH), Plasmid Empty Vector, Drug Conc. 5) was 95.4581 and the “2^-dCq (H3K4me3 IP relative to H3 IP)” value (Figure 7 E chr12:6643945-6644023 TSS (GAPDH), Plasmid Empty Vector, Drug Conc. 10) was 117.266. The “2^-dCq (H3K4me3 IP relative to H3 IP)” value (Figure 7 E chr12:6643945-6644023 TSS (GAPDH), Plasmid PRDM9WT, Drug Conc. 2.5) was 25.3027, the “2^-dCq (H3K4me3 IP relative to H3 IP)” value (Figure 7 E chr12:6643945-6644023 TSS (GAPDH), Plasmid PRDM9WT, Drug Conc. 5) was 32.9385 and the “2^-dCq (H3K4me3 IP relative to H3 IP)” value (Figure 7 E chr12:6643945-6644023 TSS (GAPDH), Plasmid PRDM9WT, Drug Conc. 10) was 45.6823. The “2^-dCq (H3K4me3 IP relative to H3 IP)” value (Figure 7 F chr19:8510167-8510261 TSS (HNRNPM), Plasmid Empty Vector, Drug Conc. 2.5) was 71.0331, the “2^-dCq (H3K4me3 IP relative to H3 IP)” value (Figure 7 F chr19:8510167-8510261 TSS (HNRNPM), Plasmid Empty Vector, Drug Conc. 5) was 77.1794 and the “2^-dCq (H3K4me3 IP relative to H3 IP)” value (Figure 7 F chr19:8510167-8510261 TSS (HNRNPM), Plasmid Empty Vector, Drug Conc. 10) was 127.571. The “2^-dCq (H3K4me3 IP relative to H3 IP)” value (Figure 7 F chr19:8510167-8510261 TSS (HNRNPM), Plasmid PRDM9WT, Drug Conc. 2.5) was 23.4419, the “2^-dCq (H3K4me3 IP relative to H3 IP)” value (Figure 7 F chr19:8510167-8510261 TSS (HNRNPM), Plasmid PRDM9WT, Drug Conc. 5) was 34.0456 and the “2^-dCq (H3K4me3 IP relative to H3 IP)” value (Figure 7 F chr19:8510167-8510261 TSS (HNRNPM), Plasmid PRDM9WT, Drug Conc. 10) was 45.2017. For the same molecule, the Cq [1] was 20.9173, the Cq (Plasmid PRDM9WT, Drug Conc. 5) was 20.8427 and 20.8648 and the Cq (Plasmid PRDM9WT, Drug Conc. 10) was 21.3604 and 21.0972. The “2^-dCq (H3K4me3 ChIP relative to H3 ChIP)” value (Figure 7 A, chr2:128811847-128811944 (Intergenic), Plasmid Empty Vector, Drug Conc. 2.5) was 0.4418, the “2^-dCq (H3K4me3 ChIP relative to H3 ChIP)” value (Figure 7 A, chr2:128811847-128811944 (Intergenic), Plasmid Empty Vector, Drug Conc. 5) was 0.3019 and the “2^-dCq (H3K4me3 ChIP relative to H3 ChIP)” value (Figure 7 A, chr2:128811847-128811944 (Intergenic), Plasmid Empty Vector, Drug Conc. 10) was 0.3892. For the same molecule, the “2^-dCq (H3K4me3 ChIP relative to H3 ChIP)” value (Figure 7 A, chr2:128811847-128811944 (Intergenic), Plasmid PRDM9WT, Drug Conc. 2.5) was 1.223, the “2^-dCq (H3K4me3 ChIP relative to H3 ChIP)” value (Figure 7 A, chr2:128811847-128811944 (Intergenic), Plasmid PRDM9WT, Drug Conc. 5) was 0.9838 and the “2^-dCq (H3K4me3 ChIP relative to H3 ChIP)” value (Figure 7 A, chr2:128811847-128811944 (Intergenic), Plasmid PRDM9WT, Drug Conc. 10) was 1.179. The “2^-dCq (H3K4me3 ChIP relative to H3 ChIP)” value (Figure 7 B, chr8:49932778-49932856 (Intergenic), Plasmid Empty Vector, Drug Conc. 2.5) was 0.3289, the “2^-dCq (H3K4me3 ChIP relative to H3 ChIP)” value (Figure 7 B, chr8:49932778-49932856 (Intergenic), Plasmid Empty Vector, Drug Conc. 5) was 0.2554 and the “2^-dCq (H3K4me3 ChIP relative to H3 ChIP)” value (Figure 7 B, chr8:49932778-49932856 (Intergenic), Plasmid Empty Vector, Drug Conc. 10) was 0.5965. For the same molecule, the “2^-dCq (H3K4me3 ChIP relative to H3 ChIP)” value (Figure 7 B, chr8:49932778-49932856 (Intergenic), Plasmid PRDM9WT, Drug Conc. 2.5) was 4.659, the “2^-dCq (H3K4me3 ChIP relative to H3 ChIP)” value (Figure 7 B, chr8:49932778-49932856 (Intergenic), Plasmid PRDM9WT, Drug Conc. 5) was 2.677 and the “2^-dCq (H3K4me3 ChIP relative to H3 ChIP)” value (Figure 7 B, chr8:49932778-49932856 (Intergenic), Plasmid PRDM9WT, Drug Conc. 10) was 2.675.
